Results from the OPERA property sets (Mansouri et al. 2018).
Peptide text beside a SMILES is read from it.

SMILES	logP
COC(=O)CCCC(=O)OC	0.62
O=P(Oc1ccccc1)(Oc1ccccc1)Oc1ccccc1	4.59
O=C1CC(OC(=O)c2ccccc2)N1 (configuration not stated)	1.37
CCc1ccc[nH]1	1.59
c1ccc(Cn2nccn2)cc1	1.56
COc1cc([C@@H]2c3cc4c(cc3C(O[C@@H]3O[C@@H]5CO[C@@H](C)O[C@H]5[C@H](O)[C@H]3O)C3COC(=O)[C@@H]32)OCO4)cc(OC)c1O (some centres not stated)	0.6
O=C1c2ccccc2C(=O)N1CCCCBr	2.96
CN(C)CCCc1ccccc1	2.73
O=S(=O)(Nc1ccccc1)C(F)(F)F	3.05
OCCN1CCN(C2CC(c3ccc(F)cc3)c3ccc(C(F)(F)F)cc32)CC1 (configuration not stated)	4.39
Nc1ccc(-c2ccc(N)cc2)cc1	1.34
CC(C)c1cnc([N+](=O)[O-])n1C	1.09
NC(=O)CCCCOC(=O)c1ccccc1	1.39
COC(=O)CNC(=O)c1ccccc1	0.82
CC1CC(C)CN(N=O)C1 (configuration not stated)	1.53
O=C(Oc1ccccc1)n1c(=O)[nH]cc(F)c1=O	1.73
CCOP(=S)(OCC)Oc1ccc(SC)cc1C	4.16
CC(C)(CCC(=O)O)C(=O)O	0.67
CCOC(=O)c1ccccn1	0.87
O=C1CN(N=Cc2ccc([N+](=O)[O-])o2)C(=O)N1	-0.47
Cc1cccc(C)c1[N+](=O)[O-]	2.95
c1ccc2ncccc2c1	2.03
C=CCSc1ccccc1	3.51

SMILES	logP
C=C1C(=O)OC2CC(C)C3C=CC(=O)C3(C)C(OC(=O)CC(=O)OC3C4C(=C)C(=O)OC4CC(C)C4C=CC(=O)C43C)C12 (configuration not stated)	1.33
CCOC(=O)c1ccccc1N	2.57
COC(=O)c1ccc(-c2ncc([N+](=O)[O-])n2C)cc1	1.63
c1ccc2c(c1)ccc1c3ccc4ccccc4c3[nH]c21	6.4
CCSC	1.54
O=C(c1ccccc1)C(F)(F)F	2.15
c1ccoc1	1.34
O=C(CF)NC(CO)C(O)c1ccc([N+](=O)[O-])cc1 (configuration not stated)	0.15
CC(=O)c1ccc(S(I)=C(N(C)C)N(C)C)cc1 (configuration not stated)	-0.85
COc1cc2c(c(OC)c1OC)-c1ccc(N)c(=O)cc1[C@@H](NC(C)=O)CC2	0.3
CC(C)C(=O)CC(=O)C(C)C	2.22
CCCCC(=O)OCC(=O)[C@@]1(OC(=O)CCCC)[C@@H](C)C[C@H]2[C@@H]3CCC4=CC(=O)C=C[C@]4(C)[C@@]3(F)[C@@H](O)C[C@@]21C	5.26
O=Nc1c(Br)cc2ccccc2c1O	2.93
OCCBr	0.23
O=C(O)c1cccc([N+](=O)[O-])c1	1.83
Clc1cccc2nccnc12	1.75
Cc1ccc2nc(N)[nH]c2c1	1.11
CCNCCc1cccnc1	0.54
O=Cc1cccc(C(F)(F)F)c1	2.47
O=C(O)COc1ccc(Cl)c([N+](=O)[O-])c1	1.85
COP(=S)(OC)SCN1C(=O)c2ccccc2C1=O	2.78
CNC(=O)Oc1ccc(Cl)c(C)c1	2.57
O=C1C(=O)c2ccccc2-c2ccccc21	2.52

SMILES	logP
Nc1nc(N)c2ccccc2n1	1
CN(C)C(N(C)C)=S(I)c1ccc(I)cc1 (configuration not stated)	0.28
CON(C)/N=N/c1ccc(C(N)=O)cc1	1.19
CSc1nnc(C(C)(C)C)c(=O)n1N	1.7
CCC(O)CC	1.21
CNC(=O)Oc1ccc(C(C)C)cc1	2.57
O=C(O)COc1ccc([N+](=O)[O-])cc1	1.48
CCC(N)=O	-0.66
CCN(C(=O)SCc1ccccc1)C(C)C(C)C (configuration not stated)	4.6
N#CCc1cccs1	1.26
O=[N+]([O-])c1cccnc1	0.6
O=C(O)c1cc(O)c(O)c(O)c1	0.7
C=CCCCCCC	4.57
O=C1CCC(=O)N1c1ccccc1I	0.8
O=C(CCCN1CCC(n2c(=O)[nH]c3ccccc32)CC1)c1ccc(F)cc1	3.91
CC(=O)N[C@@H](CC(C)C)C(=O)N[C@@H](CO)C(=O)N[C@@H](Cc1ccccc1)C(N)=O (Ac-Leu-Ser-Phe-NH2)	0.23
CN(C)C(N(C)C)=S(I)c1cc(Cl)c(Cl)cc1Cl (configuration not stated)	0.68
COc1ccc(S(N)(=O)=O)cc1C(=O)NCC1CCCN1Cc1ccc(F)cc1 (configuration not stated)	2.46
NNS(=O)(=O)c1ccccc1	-0.14
CN(C)C(=O)OCc1ccc([N+](=O)[O-])cc1	1.95
CCOC(=O)NC1=C(N2CC2)C(=O)C(NC(=O)OCC)=C(N2CC2)C1=O	-0.02
CCCC(C)C1(CC)C(=O)N=C(O)NC1=O (configuration not stated)	2.1
O=C(O)C(CO)c1ccccc1 (configuration not stated)	0.77

SMILES	logP
COC(=O)c1cnc2n(c1=O)C(C(C)C)CCC2 (configuration not stated)	0.99
Clc1cc(Cl)c(Cl)c(Cl)c1	4.56
CCOP(=S)(OCC)Oc1cc(C)nc(N(CC)CC)n1	4.85
C=C(Br)CC1(C(C)CCC)C(=O)NC(=O)NC1=O (configuration not stated)	2.09
CC(=O)Nc1cccc2cccnc12	1.91
Cc1c(Cl)cccc1Nc1ccccc1C(=O)O	5.17
O=C(O)c1ccccc1Nc1ccccc1	4.36
CO	-0.77
NNC(=O)c1ccnc(Cc2ccccc2)c1	1.01
CCNCc1cccnc1	0.76
CCc1cc(NC(C)=O)cc(CC)c1O	1.87
CC1CCCC(C)N1N=O (configuration not stated)	1.36
NCCCNC(=O)c1ccccc1	0.3
CC(=O)Nc1c(C)cc(O)cc1C	0.31
C=C1C(=O)OC2C1CCC(C)C1C=CC(=O)C12C (configuration not stated)	1.03
NC(=O)CCCc1ccccc1	1.41
CS(=O)(=O)c1cccc([N+](=O)[O-])c1	0.5
CS(=O)(=O)Oc1ccccc1	1.25
CNC(=O)OCc1c2c(n3c1C(OC(C)=O)CC3)C(=O)C=C(OC)C2=O (configuration not stated)	1.19
NC(=O)c1ccc(C(O)C(CO)NC(=O)C(Cl)Cl)cc1 (configuration not stated)	-0.48
C=CCC1(CC(=C)Br)C(=O)NC(=O)NC1=O	1.37
CC(=O)Nc1ccc(Br)cc1	2.29
Oc1ccc(O)cc1	0.59

SMILES	logP
CN(C)C(N(C)C)=S(I)c1cccc(Cl)c1Cl (configuration not stated)	0.29
O=C(O)Cc1ccc(OCCc2ccccc2)c(Cl)c1	3.53
O=[N+]([O-])c1cccc(F)c1	1.9
COc1cc(S(C)=O)ccc1-c1nc2cnncc2[nH]1 (configuration not stated)	0.39
CN1C(=O)C(=O)c2ccccc21	0.58
c1cn(C23CC4CC(CC(C4)C2)C3)cn1	2.9
Cc1ccccc1C=C[N+](=O)[O-]	2.63
Cc1ccccc1C(=O)Nc1cccc(OC(C)C)c1	3.66
CC(=O)OCC(=O)[C@H]1CC[C@H]2[C@@H]3CCC4=CC(=O)CC[C@]4(C)[C@H]3CC[C@]12C	3.08
O=C(O)c1cccc2ccccc12	3.1
O=[N+]([O-])c1ccccc1	1.85
CNC1=CC(=O)c2ccccc2C1=O	1.74
c1cnc2ncncc2n1	-0.58
O=C(O)Cc1ccc([N+](=O)[O-])cc1	1.39
Cc1ccccc1OCC(=O)NNC(C)C	1.83
C=CCOC(C)=O	0.97
O=C(O)COc1ccccc1F	1.39
FC(F)(F)c1cccc(C(F)(F)F)c1	3.83
O=C1C(F)=C(N2CC2)C(=O)C(N2CC2)=C1N1CC1	0.14
O=C(O)C(c1ccc(Cl)cc1)n1cccc1 (configuration not stated)	2.3
CNC(=O)ON=C(SC)C(=O)N(C)C	-0.47
CN(C)CCCCc1cccnc1	1.49
Cc1cc2nc[nH]c2cc1C	2.35

SMILES	logP
COc1ccccc1O	1.32
C[C@]12CC[C@H](O)CC1=CC[C@@H]1[C@@H]2CC[C@]2(C)C(=O)CC[C@@H]12	3.23
CNP(=O)(OC)Oc1ccc(OC)cc1 (configuration not stated)	1.06
CC1=C(N2CC2)C(=O)C(CCOC(N)=O)=C(N2CC2)C1=O	0.16
CN(C)C(=O)OCc1ccc(Br)cc1	3.01
O=[N+]([O-])c1ccccc1O	1.79
OCc1ccoc1	0.3
Nc1ccc(C(=O)Oc2ccc(F)cc2)c(O)c1	3.27
O=C(O)c1ccc(O)c([N+](=O)[O-])c1	1.85
COc1ccc2cc(C(C)C(=O)OCC(=O)N(CCO)CCO)ccc2c1 (configuration not stated)	1.7
COc1ccc(CC(=O)O)cc1	1.42
COc1ccc(NC(=O)NC(=N)N)cc1	0.56
CN(C)/N=N/c1ccc2n[nH]cc2c1	2.36
CN(C)c1ccc2c(c1)C(=O)N(O)C2=O	1.27
CC(=O)Nc1ccccc1Cl	1.28
CCCC(N)C(=O)O (configuration not stated)	-2.11
CC(=O)Nc1cccc(C(F)(F)F)c1	2.56
Oc1cccc(O)c1	0.8
Nc1cccc([N+](=O)[O-])c1N	1.27
CCCC(=NOCC)C1C(=O)CC2(CC(C)CC(C)C2)OC1=O (configuration not stated)	4.48
CC(C)N(C(=O)CCl)c1ccccc1	2.18
C=CC=O	-0.01
CCNc1nc(NC(C)(C)C)nc(SC)n1	3.74

SMILES	logP
CCC(C)C(NC(=O)C(CCC(=O)O)NC(C)=O)C(=O)NC(Cc1ccccc1)C(N)=O (stereo not drawn) (Ac-Glu-Ile-Phe-NH2; configuration not given here)	0.43
CC(=O)NC(=O)NC(C)=O	-0.68
CCCc1ccncc1	2.1
CCN(CC)CCN	0.21
Cc1c[nH]cn1	0.23
Cc1cccc2cccnc12	2.6
CNC(=O)c1ccoc1	0.34
CCCCCCCC(=O)OCC(=O)C1(O)CCC2C3CCC4=CC(=O)CCC4(C)C3C(O)CC21C (configuration not stated)	5.49
COc1cc2c(cc1OC)[C@@]13CCN4CC5=CCO[C@H]6CC(=O)N2[C@H]1[C@H]6[C@H]5C[C@H]43	0.98
CC(=O)c1ccc(Cl)cc1	2.32
CC1OC(=O)c2ccccc21 (configuration not stated)	1.41
O=C(NCCN1CCC(O)(c2ccc(Cl)cc2)CC1)c1ccc(F)cc1	2.85
O=[N+]([O-])c1cccc(Cl)c1Cl	3.05
C=CCN1CC[C@]23CCCC[C@H]2[C@H]1Cc1ccc(O)cc13	3.48
CON(C)C(=O)Nc1cccc([N+](=O)[O-])c1	1.64
NNC(=O)c1ccccc1O	0.6
CC(=O)c1ccc(O)cc1	1.35
Nc1ccccc1-c1ccccc1	2.84
CCI	2
